Results published in article PMC6709497, “Identification of Novel Trypanosoma cruzi Proteasome Inhibitors Using a Luminescence-Based High-Throughput Screening Assay” (Antimicrobial Agents and Chemotherapy, 2019).
Where two headings read alike, the source gives them in different places. Starred links: 1 amine or outer side, 2 acyl side, 3 side chain; linkers in the order of their positions; H or OH if unused. Non-standard residues stand in square brackets, D forms with d. Residues, ends and D or L forms follow the SMILES beside them. ξ: configuration not given here. *: point of attachment. aminoluciferin = aminoluciferin attached at the C-terminus (luminogenic reporter), O=C(O)[C@H]1CSC(c2nc3ccc(N*)cc3s2)=N1; Suc = O=C(CCC(=O)[*:2])[*:1]; Nva = CCC[C@H](N)C(=O)O; Cbz = O=C(OCc1ccccc1)*; ξL = CC(C)CC(N)C(=O)O

What was measured:
[1] = test system: proteasome chymotrypsin-like activity; parameters: method as in PMID 25308265; settings: similar assay platform in a cellular system; read-out: Km, approximate value; cited from earlier work
[2] = test system: T. cruzi proteasome; test: Kinetic-parameter (Km) determination for chymotrypsin-like substrate; format: biochemical, Trypanosoma cruzi; settings: 95% CI = 78.8 to 108.4 μM; 60-min reaction; n = 3; read-out: apparent steady-state Km
Method: Assay linearity and the optimal amount of T. cruzi proteasome for screening was determined by first serially diluting (1 in 2; CMF = 0.5) the proteasome stock solution in proteasome buffer to generate 10 additional concentrations. Next, 4 μl of each of the T. cruzi proteasome solutions was added to 4 μl of the luciferin detection and Proteasome-Glo chymotrypsin-like reagent mixture. Luminescence was read immediately and then every 90 s for 75 min. Data were acquired from 5 technical replicates (n = 5). To calculate the Michaelis constant (Km) and identify the optimal amount of chymotrypsin-like suc-Leu-Leu-Val-Tyr-aminoluciferin substrate for screening, the Proteasome-Glo chymotrypsin-like assay (Promega; catalogue no. G8622) luciferin detection reagent (comprising luciferase enzyme in Proteasome-Glo buffer) was prepared according to the manufacturers’ protocol ([29]). A 1,200 μM solution (600 μM final assay concentration) of the substrate was prepared and subsequently serially diluted (1 in 2; CMF = 0.5) using the luciferin detection reagent to generate 8 additional concentrations. Next, 4 μl of each of the luciferin detection and substrate solution mixtures was added to 4 μl of partially purified T. cruzi proteasome that was diluted 1 in 4 (CMF = 0.25) from the original stock using proteasome buffer. Luminescence was read immediately and then every 90 s for 75 min. […]

[3] = biological target: T. cruzi proteasome trypsin-like activity (Trypanosoma cruzi, UniProt V5BCU3+V5BGL9); test: Cell-free T. cruzi proteasome trypsin-like activity luminescence assay; format: biochemical; settings: n = 4; 15 μM Z-Leu-Arg-Arg-aminoluciferin
Excerpt: The commercially available Proteasome-Glo 3-substrate system and chymotrypsin-like assay kits (Promega; catalogue no. G8531 and G8622, respectively) were assembled according to the manufacturers’ protocols ([29]) unless otherwise stated. Briefly, Proteasome-Glo buffer was used to formulate the luciferin detection reagent (containing a recombinant thermostable luciferase enzyme) to approximately 0.35% (wt/vol) final assay concentration. The luciferin detection reagent was then mixed with Proteasome-Glo trypsin-, caspase-, or chymotrypsin-like reagents (comprising 15 μM Z-Leu-Arg-Arg-aminoluciferin (Z is benzyloxycarbonyl), 20 μM Z-Nle-Pro-Nle-Asp-aminoluciferin, or 20 μM suc-Leu-Leu-Val-Tyr-aminoluciferin substrate, respectively, at final assay concentrations), and the mixture was allowed to incubate at room temperature for 60 min prior to use. T. cruzi proteasome buffer comprised 50 mM Tris-HCl, pH 7.5, 10 mM sucrose, 5 mM MgCl2, 1 mM dithiothreitol, 2 mM ATP, 150 mM NaCl, 1 mM EDTA, and 0.05 mg/ml bovine serum albumin (BSA). […] Biochemical cell-free assays were performed in an 8-μl final assay volume using 384-well white low-volume plates (Greiner; catalogue no. 784904), and cellular assays were performed in a 50-μl final assay volume using 384-well standard volume plates (Greiner; catalogue no. 781098). Luminescence was read using an EnVision 2102 Multilabel Reader (PerkinElmer, USA) with 0.2-s per well reading time, unless otherwise specified. DMSO or compound was added to the assay plates using Echo acoustic dispensers (Labcyte, USA). […] Z factor values were calculated using the following equation: Z factor = 1 − ({3 × [1.483 × (RLU MAD Max)]} + {3 × [1.483 × (RLU MAD Min)]})/(median RLU Max − median RLU Min), where MAD is the median absolute deviation, Max is the maximum-effect control samples, and Min is the minimum-effect control samples.
Next, 4 μl of luciferin detection and Proteasome-Glo chymotrypsin-, caspase-, or trypsin-like reagent mixtures were added to initiate the biochemical reaction. The reaction was allowed to proceed at room temperature for 60 min, after which the luminescence was read. […] Relative luminescence unit (RLU) data were normalized to percent inhibition values relative to 100% effect (DMSO, 1% [vol/vol] final assay concentration in the absence of T. cruzi proteasome enzyme) and 0% effect (DMSO, 1% [vol/vol] final assay concentration with T. cruzi proteasome enzyme) control populations using Microsoft Excel 2013 software. IC50 values were calculated by fitting the concentration-response data for each independent replicate separately to either a four-parameter logistic model or a seven-parameter logistic model with the bottom curve plateau parameter constrained to zero, as shown below. […]

[4] = test system: T. cruzi strain Silvio X10/7 epimastigotes; test: Cellular T. cruzi epimastigote viability assay; format: cell-based, Trypanosoma cruzi; settings: 96 h; for EC50: Trypanosoma cruzi, read-out: Cellular pEC50 ± SD (converted)
Method: For the cell viability readout, BacTiter-Glo microbial cell viability reagent (Promega; catalogue no. G8230) was added to each well (25 μl) and incubated at room temperature for 5 min. The plates were then sealed with clear film, and the luminescence was read using a Victor 3 (PerkinElmer, USA) or Pherastar FS (BMG Labtech, Germany) plate reader with a 0.5-s per well reading time. Data for epoxomicin were obtained from three independent replicates (n = 3), and data for all the remaining compounds were acquired from four independent replicates (n = 4). RLU data were normalized to percent inhibition values relative to 100% effect (Nifurtimox) and 0% effect (DMSO; 1% [vol/vol] final assay concentration) control populations. Normalized data for each independent replicate were fitted separately to a four-parameter logistic regression model, and pEC50 {i.e., −log(EC50[M])} values were calculated using IBDS ActivityBase 8.1.2.12 software, after which a mean pEC50 value for each compound was calculated.

[5] = biological target: T. cruzi proteasome caspase-like activity (Trypanosoma cruzi, UniProt V5BHX1); test: Cell-free T. cruzi proteasome caspase-like activity luminescence assay; format: biochemical; settings: n = 4; 20 μM Z-Nle-Pro-Nle-Asp-aminoluciferin
Excerpt: (§1) The commercially available Proteasome-Glo 3-substrate system and chymotrypsin-like assay kits (Promega; catalogue no. G8531 and G8622, respectively) were assembled according to the manufacturers’ protocols ([29]) unless otherwise stated. Briefly, Proteasome-Glo buffer was used to formulate the luciferin detection reagent (containing a recombinant thermostable luciferase enzyme) to approximately 0.35% (wt/vol) final assay concentration. The luciferin detection reagent was then mixed with Proteasome-Glo trypsin-, caspase-, or chymotrypsin-like reagents (comprising 15 μM Z-Leu-Arg-Arg-aminoluciferin (Z is benzyloxycarbonyl), 20 μM Z-Nle-Pro-Nle-Asp-aminoluciferin, or 20 μM suc-Leu-Leu-Val-Tyr-aminoluciferin substrate, respectively, at final assay concentrations), and the mixture was allowed to incubate at room temperature for 60 min prior to use. T. cruzi proteasome buffer comprised 50 mM Tris-HCl, pH 7.5, 10 mM sucrose, 5 mM MgCl2, 1 mM dithiothreitol, 2 mM ATP, 150 mM NaCl, 1 mM EDTA, and 0.05 mg/ml bovine serum albumin (BSA). T. cruzi strain Silvio X10/7 epimastigotes were maintained in vitro at 28°C in RTH-fetal calf serum (FCS) culture medium (RPMI 1640 supplemented with 0.4% Trypticase peptone, 0.017 M HEPES, 25 μM hemin, 10% heat-inactivated FCS). Biochemical cell-free assays were performed in an 8-μl final assay volume using 384-well white low-volume plates (Greiner; catalogue no. 784904), and cellular assays were performed in a 50-μl final assay volume using 384-well standard volume plates (Greiner; catalogue no. 781098). Luminescence was read using an EnVision 2102 Multilabel Reader (PerkinElmer, USA) with 0.2-s per well reading time, unless otherwise specified. DMSO or compound was added to the assay plates using Echo acoustic dispensers (Labcyte, USA). Reagent addition for high-throughput screening assays was performed using an Xrd-384 liquid dispenser (FluidX, United Kingdom) and a BioFill Solo/Xrd-384 8-channel resin nozzle (0.5- to 200-μl) tubing cartridge (FluidX; catalogue no. 34-1003). Data analysis was performed using SigmaPlot 12.5 software unless otherwise stated. Z factor values were calculated using the following equation: Z factor = 1 − ({3 × [1.483 × (RLU MAD Max)]} + {3 × [1.483 × (RLU MAD Min)]})/(median RLU Max − median RLU Min), where MAD is the median absolute deviation, Max is the maximum-effect control samples, and Min is the minimum-effect control samples.
(§2) Next, 4 μl of luciferin detection and Proteasome-Glo chymotrypsin-, caspase-, or trypsin-like reagent mixtures were added to initiate the biochemical reaction. The reaction was allowed to proceed at room temperature for 60 min, after which the luminescence was read. Data were acquired from 4 independent replicates (n = 4). Relative luminescence unit (RLU) data were normalized to percent inhibition values relative to 100% effect (DMSO, 1% [vol/vol] final assay concentration in the absence of T. cruzi proteasome enzyme) and 0% effect (DMSO, 1% [vol/vol] final assay concentration with T. cruzi proteasome enzyme) control populations using Microsoft Excel 2013 software. IC50 values were calculated by fitting the concentration-response data for each independent replicate separately to either a four-parameter logistic model or a seven-parameter logistic model with the bottom curve plateau parameter constrained to zero, as shown below.
The four-parameter logistic model is as follows: y=Min+Max−Min/1+(x/IC50)^−Hillslope […]

[6] = biological target: T. cruzi proteasome chymotrypsin-like activity (Trypanosoma cruzi, UniProt V5BU39); test: Cell-free T. cruzi proteasome chymotrypsin-like activity luminescence assay (commercial inhibitors); format: biochemical
Excerpt: as §1, with “T. cruzi strain Silvio X10/7 epimastigotes were maintained in vitro at 28°C in RTH-fetal calf serum (FCS) culture medium (RPMI 1640 supplemented with 0.4% Trypticase peptone, 0.017 M HEPES, 25 μM hemin, 10% heat-inactivated FCS).” left out
as §2
The four-parameter logistic model is as follows: y=Min+Max−Min/1+(x/IC50)^−Hillslope
The seven-parameter logistic model is as follows: y=(Max_1+{Min−Max_1/1+[(x/IC50_1)^Hillslope_1]})+(Max_2−{Max_2/1+[(x/IC50_2)^Hillslope_2]}) […]

[7] = parameters: method as in PMID 28645201; settings: cited from earlier work
[8] = BacTiter-Glo viability readout, n = 4 (epoxomicin n = 3)

Sequence of T. cruzi proteasome caspase-like activity (V5BHX1 entry or part of it): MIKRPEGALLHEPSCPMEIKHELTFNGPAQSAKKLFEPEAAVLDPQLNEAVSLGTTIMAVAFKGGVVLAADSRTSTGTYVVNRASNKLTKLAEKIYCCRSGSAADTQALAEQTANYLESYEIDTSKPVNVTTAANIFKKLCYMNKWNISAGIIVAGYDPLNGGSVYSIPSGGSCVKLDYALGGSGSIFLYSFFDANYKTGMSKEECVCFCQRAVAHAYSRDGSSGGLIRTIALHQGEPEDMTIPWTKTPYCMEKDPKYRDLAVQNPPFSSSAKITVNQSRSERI
Sequence of T. cruzi proteasome trypsin-like activity (V5BGL9 entry or part of it): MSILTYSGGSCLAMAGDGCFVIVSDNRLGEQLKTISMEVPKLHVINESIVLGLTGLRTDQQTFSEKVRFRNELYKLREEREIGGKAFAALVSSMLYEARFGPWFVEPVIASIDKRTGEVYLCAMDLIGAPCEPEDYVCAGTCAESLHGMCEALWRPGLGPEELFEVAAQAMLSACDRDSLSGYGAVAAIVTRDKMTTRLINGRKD
Sequence of T. cruzi proteasome trypsin-like activity (V5BCU3 entry or part of it): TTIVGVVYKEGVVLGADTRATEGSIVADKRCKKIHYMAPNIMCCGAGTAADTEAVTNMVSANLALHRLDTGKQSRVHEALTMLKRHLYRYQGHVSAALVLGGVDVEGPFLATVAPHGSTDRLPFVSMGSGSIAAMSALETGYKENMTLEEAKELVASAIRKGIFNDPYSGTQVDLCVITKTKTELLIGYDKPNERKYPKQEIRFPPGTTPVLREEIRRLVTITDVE
Sequence of T. cruzi proteasome chymotrypsin-like activity (V5BU39 entry or part of it): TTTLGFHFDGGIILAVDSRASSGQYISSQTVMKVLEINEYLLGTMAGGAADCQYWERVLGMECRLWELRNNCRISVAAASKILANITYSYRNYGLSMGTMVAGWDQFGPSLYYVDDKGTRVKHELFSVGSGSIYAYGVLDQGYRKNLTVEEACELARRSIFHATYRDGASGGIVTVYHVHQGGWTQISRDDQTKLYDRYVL
Sequence of T. cruzi proteasome chymotrypsin-like activity (A0A2V2VW62 entry or part of it, further chain): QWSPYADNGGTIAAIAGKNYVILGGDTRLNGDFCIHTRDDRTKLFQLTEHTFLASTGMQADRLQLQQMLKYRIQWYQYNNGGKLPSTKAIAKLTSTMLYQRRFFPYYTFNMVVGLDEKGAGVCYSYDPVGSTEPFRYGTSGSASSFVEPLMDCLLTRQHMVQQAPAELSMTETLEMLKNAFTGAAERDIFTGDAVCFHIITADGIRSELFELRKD
Sequence of T. cruzi proteasome chymotrypsin-like activity (V5C017 entry or part of it, further chain): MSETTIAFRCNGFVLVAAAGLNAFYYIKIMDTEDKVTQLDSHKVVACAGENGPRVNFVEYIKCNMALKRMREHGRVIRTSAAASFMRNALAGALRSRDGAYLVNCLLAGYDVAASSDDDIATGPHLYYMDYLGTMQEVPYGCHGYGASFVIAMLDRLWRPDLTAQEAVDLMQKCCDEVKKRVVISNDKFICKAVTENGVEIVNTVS

In the case of “succinyl-Leu-Leu-Val-Tyr-aminoluciferin (Suc-LLVY-aminoluciferin; SMILES CC(C)C[C@H](NC(=O)CCC(=O)O)C(=O)N[C@@H](CC(C)C)C(=O)N[C@H](C(=O)N[C@@H](Cc1ccc(O)cc1)C(=O)Nc1ccc2nc(C3=N[C@@H](C(=O)O)CS3)sc2c1)C(C)C) [suc-Leu-Leu-Val-Tyr-aminoluciferin, luminogenic chymotrypsin-like peptide substrate]”, the Km [1] is listed as about 60 µM and the Km [2] is listed as 93.5 µM.

For `CC[C@H](C)[C@H](NC(=O)[C@H]([C@@H](C)CC)N(C)C(C)=O)C(=O)N[C@H](C(=O)N[C@@H](CC(C)C)C(=O)[C@@]1(C)CO1)[C@@H](C)O` [Epoxomicin, epoxomicin], the “Cell-free pIC50 ± SD, Trypsin-like” value [3] was 6.10 ± 0.06 M, the EC50 [4] was 63.1 nM and the “Cell-free pIC50 ± SD, Caspase-like” value [5] was 5.85 ± 0.05 M.

For oprozomib, the “Cellular pEC50 ± SD” value [4, 8] was 6.53 ± 0.32 M.

With `CC(C)C[C@H](NC(=O)CNC(=O)c1cc(Cl)ccc1Cl)B(O)O` [Ixazomib, ixazomib] the “chymotrypsin-like activity dose-response curve shape” value [6] was “biphasic”, the “Cell-free pIC50 ± SD, Trypsin-like” value [3] was 5.51 ± 0.07 M and the EC50 [4, 8] was 708 nM. For the same molecule, the “Cell-free pIC50 ± SD, Caspase-like” value [5] was 7.49 ± 0.17 M.

In the case of `CCC[C@@H](C=O)NC(=O)C(CC(C)C)NC(=O)[C@H](CC(C)C)NC(=O)OCc1ccccc1` (stereo partly drawn) [MG115] (Cbz-Leu-[ξL]-[Nva]-aldehyde), the “Cell-free pIC50 ± SD, Trypsin-like” value [3] is reported as 4.87 ± 0.09 M, the EC50 [4, 8] is reported as 4370 nM and the “Cell-free pIC50 ± SD, Caspase-like” value [5] is reported as 4.91 ± 0.10 M.

In the case of `CC(C)C[C@@H](C=O)NC(=O)[C@H](CC(C)C)NC(=O)[C@H](CC(C)C)NC(=O)OCc1ccccc1` [MG132] (Cbz-Leu-Leu-Leu-aldehyde), the “chymotrypsin-like activity dose-response curve shape” value [6] is reported as “biphasic”, the “Cell-free pIC50 ± SD, Trypsin-like” value [3] is reported as 4.88 ± 0.14 M and the EC50 [4] is reported as 2450 nM. The “Cell-free pIC50 ± SD, Caspase-like” value [5] was 6.01 ± 0.09 M.

For `CC(C)C[C@H](NC(=O)[C@H](Cc1ccccc1)NC(=O)c1cnccn1)B(O)O` [Bortezomib, bortezomib], the “chymotrypsin-like activity dose-response curve shape” value [6] was “biphasic”, the IC30 ([6]; concentration approximately equivalent to IC30, used for spiking test plates) was about 4 nM and the IC70 ([6]; concentration approximately equivalent to IC70, used for spiking test plates) was about 79 nM. For the same molecule, the EC50 [4, 8] was 240 nM and the “Cell-free pIC50 ± SD, Caspase-like” value [5] was 7.16 ± 0.13 M.

In the case of `O=C(Cn1ccnc1[N+](=O)[O-])NCc1ccccc1` [Benznidazole, benznidazole], the “treatment discontinuation rate due to side effects” value [7] is given as 10%.
